{"source": "patent US7919101B2", "about": "(priority 2008, dated 2011)", "key": {"HIV-1": {"test_system": "HIV-1", "details": "cited from earlier work"}, "[1]": {"test_system": "HIV-1 Env-mediated cell-cell fusion", "details": "cited from earlier work"}, "gp41 6-HB formation": {"target": "gp41 6-HB formation (Human immunodeficiency virus type 1 group M subtype B, UniProt P04578)", "sequence (P04578 546-581)": "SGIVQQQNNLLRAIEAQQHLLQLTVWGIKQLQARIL", "details": "cited from earlier work"}, "[2]": {"details": "cited from earlier work"}, "[3]": {"test_system": "HIV-1-mediated cell-cell fusion (H9/HIV-1IIIB cells and MT-2 cells)", "experiment": "HIV-1-mediated cell-cell fusion, dye transfer assay", "format": "cell-based", "experimental": "The inhibitory activities of the compounds on HIV-induced cell-cell fusion were determined using a dye transfer assay (Jiang S et al. Proc SPIE 3926:212-219, 2000). Briefly, H9/HIV-1IIIB cells were pre-labeled with a fluorescent dye, Calcein AM (Molecular Probes, Inc.), and incubated with a testing compound at a graded concentration at 37° C. for 30 min in a 96-well cell culture plate. Then the CD4^+ MT-2 cells were added to the H9/HIV-1IIIB cells at a ratio of 10:1, followed by incubation at 37° C. for 2 hrs. The fused and unfused calcein-labeled HIV-1-infected cells were counted under an inverted fluorescence microscope with an eyepiece micrometer disc."}, "[4]": {"details": "in combination T-20:Sifuvirtide (4:1)"}, "[5]": {"details": "in combination T-20:Sifuvirtide (4:1) vs alone"}}, "note": "Like-named read-outs stand apart in the source and are kept apart here. Residues, ends and D or L forms follow the SMILES beside them. No end group written: not given here.", "data": [{"compound": "COc1ccc(S(=O)(=O)[O-])cc1N=Nc1c(S(=O)(=O)[O-])cc2cc(Nc3nc(Nc4ccccc4)nc(Nc4cc(C)c(N=Nc5cc(S(=O)(=O)[O-])cc6cc(S(=O)(=O)[O-])cc(O)c56)cc4OC)n3)ccc2c1O.[Na+].[Na+].[Na+].[Na+]", "note": "[ADS-J1]", "values": [{"measurement": "EC50, HIV infection / replication (in words)", "setting": "HIV-1", "value": "low μM range"}, {"measurement": "EC50, HIV-1 mediated cell-cell fusion (in words)", "setting": "[1]", "value": "low μM range"}, {"measurement": "EC50, gp41 6-HB formation (in words)", "setting": "gp41 6-HB formation", "value": "low μM range"}]}, {"compound": "CC[C@H](C)[C@H](NC(=O)[C@H](CCC(=O)O)NC(=O)[C@H](CCCNC(=N)N)NC(=O)[C@H](CCC(=O)O)NC(=O)[C@H](Cc1c[nH]c2ccccc12)NC(=O)[C@@H](NC(=O)[C@H](CCC(=O)O)NC(=O)[C@H](Cc1c[nH]c2ccccc12)NC(=O)[C@@H](N)CO)[C@@H](C)O)C(=O)N[C@@H](CCC(=O)O)C(=O)N[C@@H](CC(N)=O)C(=O)N[C@@H](Cc1ccc(O)cc1)C(=O)N[C@H](C(=O)N[C@@H](CCCCN)C(=O)N[C@@H](CCC(N)=O)C(=O)N[C@H](C(=O)N[C@@H](Cc1ccc(O)cc1)C(=O)N[C@@H](CCCCN)C(=O)N[C@H](C(=O)N[C@@H](CC(C)C)C(=O)N[C@@H](CCC(=O)O)C(=O)N[C@@H](CCC(=O)O)C(=O)N[C@@H](CO)C(=O)N[C@@H](CCC(N)=O)C(=O)N[C@@H](CCC(=O)O)C(=O)N[C@@H](CCC(N)=O)C(=O)N[C@@H](CCC(N)=O)C(=O)N[C@@H](CC(=O)O)C(=O)N[C@@H](CCCNC(=N)N)C(=O)N[C@@H](CC(N)=O)C(=O)N[C@@H](CCC(=O)O)C(=O)N[C@@H](CCCCN)C(=O)N[C@@H](CC(=O)O)C(=O)N[C@@H](CC(C)C)C(=O)N[C@@H](CC(C)C)C(=O)N[C@@H](CCC(=O)O)C(=O)O)[C@@H](C)CC)[C@@H](C)CC)[C@@H](C)O", "note": "[Sifuvirtide] (H-SWETWEREIENYTKQIYKILEESQEQQDRNEKDLLE-OH; N-terminus and C-terminus assumed)", "values": [{"measurement": "decay half-life", "setting": "[2]; multiple administration", "value": "26.0 ± 7.9", "unit": "h"}, {"measurement": "decay half-life", "setting": "[2]; single administration", "value": "20.0 ± 8.6", "unit": "h"}, {"measurement": "EC70 Concentration Mix", "setting": "[3]; [4]", "value": 0.589, "unit": "nM"}, {"measurement": "EC95 Concentration Mix", "setting": "[3]; [4]", "value": 0.884, "unit": "nM"}, {"measurement": "Potency increase at EC50", "setting": "[3]; [5]", "value": 35.424, "unit": "fold"}, {"measurement": "Potency increase at EC70", "setting": "[3]; [5]", "value": 35.075, "unit": "fold"}, {"measurement": "Potency increase at EC90", "setting": "[3]; [5]", "value": 34.771, "unit": "fold"}, {"measurement": "Potency increase at EC95", "setting": "[3]; [5]", "value": 34.564, "unit": "fold"}, {"measurement": "EC50", "setting": "[3]; in combination T-20:Sifuvirtide (4:1), read-out: EC50 Concentration Mix", "value": 0.462, "unit": "nM"}, {"measurement": "EC90", "setting": "[3]; in combination T-20:Sifuvirtide (4:1), read-out: EC90 Concentration Mix", "value": 0.75, "unit": "nM"}, {"measurement": "EC70 Concentration Alone", "setting": "[3]; peptide tested alone", "value": 20.659, "unit": "nM"}, {"measurement": "EC95 Concentration Alone", "setting": "[3]; peptide tested alone", "value": 30.555, "unit": "nM"}, {"measurement": "EC50", "setting": "[3]; peptide tested alone, read-out: EC50 Concentration Alone", "value": 16.4, "unit": "nM"}, {"measurement": "EC90", "setting": "[3]; peptide tested alone, read-out: EC90 Concentration Alone", "value": 26.1, "unit": "nM"}]}, {"compound": "NHR-peptide, disulfide-stabilized helical trimer; SEQ ID NO:48 SGIVQQQNNLLRAIEAQQHLLQLTVWGIKQCCGR (not fully specified (bridges); also: disulfide-stabilized helical trimer) [N34ccg]", "values": [{"measurement": "EC50", "setting": "[1]; read-out: EC50, HIV-induced cell-cell fusion", "value": 95, "unit": "nM"}]}, {"compound": "short all D-amino acid peptide; SEQ ID NO:24 KGACELLGWEWAWLCAA [D10-p5-2K]", "values": [{"measurement": "EC50, HIV infection / replication (in words)", "setting": "HIV-1", "value": "low micromolar range"}]}, {"compound": "short all D-amino acid peptide; SEQ ID NO:25 KGACDYPEWQWLCAA [PIE7]", "values": [{"measurement": "EC50, HIV infection / replication (in words)", "setting": "HIV-1", "value": "low micromolar range"}]}]}
